Experiment [1] relates to HeLa (cervical cancer) cell line. As to the kind of experiment: MTT cell viability assay, HeLa. Type of experiment: cell-based, human. The following applies: 72 h, MTT, 1-100 µM, mean ± SD. The protocol: (§1) Compounds 6–49 were evaluated in vitro for their effects on the viability of the three human cancer cell lines: HCT-116 (colon cancer), MCF-7 (breast cancer) and HeLa (cervical cancer) as well as the non-cancerous keratinocyte cell line (HaCaT). The concentration required for 50% inhibition of cell viability IC50 was calculated and compared with the reference drug cisplatin, the results are shown in Table 1.
(§2) Cell lines: colon cancer (HCT-116), breast cancer (MCF-7), cervical cancer (HeLa), the human keratinocyte cell line (HaCaT); NT—not tested; IC50 was measured at concentrations 1, 10, 25, 50, and 100 µM. IC50 values are expressed as the mean ± SD of at last three independent experiments.
(§3) All chemicals, if not stated otherwise, were obtained from Sigma–Aldrich (St. Louis, MO, USA). The HCT-116 cell lines was purchased from ATCC (ATCC-No: CCL-247), while the MCF-7, HeLa and HaCaT cell lines were purchased from Cell Lines Services (Eppelheim, Germany). Cells were cultured in Dulbecco’s modified Eagle’s medium (DMEM) supplemented with 10% fetal bovine serum, 2 mM glutamine, 100 units/mL penicillin, and 100 µg/mL streptomycin. Cultures were maintained in a humidified atmosphere with 5% carbon dioxide at 37 °C in an incubator (Heraceus, HeraCell).
(§4) Cell viability was examined using the MTT (3-(4,5-dimethylthiazol-2-yl)-2,5-diphenyltetrazolium bromide) assay. Cells were seeded in 96-well plates at a density of 5 × 10^3 cells/well and treated for 72 h with the tested compounds in the concentration range of 1–100 µM (1, 10, 25, 50 and 100 µM). Then, MTT (0.5 mg/mL) was added to the medium and cells were further incubated for 2 h at 37 °C. In the next stage, cells were lysed with DMSO and the absorbance of the formazan solution was measured at 550 nm with a plate reader (1420 multilabel counter, Victor, Jügesheim, Germany). The experiment was performed in triplicate. Values are expressed as the mean ± SD of at least three independent experiments. Cisplatin was used as a positive control.
(Tetrazolium assays rely on reduction of a dye to a coloured formazan, in cell work by metabolically active cells.)

For experiment [2], the system named is HCT-116 (colon cancer) cell line. As to the kind of experiment: MTT cell viability assay, HCT-116. The format is cell-based, human. The settings on record: Homo sapiens, HCT-116, 72 h, MTT, 72 h, 1-100 µM, mean ± SD. The protocol: as §1, §2, §3, §4
Experiment [3] has as its system MCF-7 (breast cancer) cell line. As to the kind of experiment: MTT cell viability assay, MCF-7. The format is cell-based, human. The following applies: MTT, 72 h, 1-100 µM, mean ± SD. The procedure: as §1, §2, §3, §4
Experiment [4] deals with HaCaT (non-cancerous keratinocyte cell line). As to the kind of experiment: MTT cell viability assay, HaCaT. The following applies: Homo sapiens, 72 h, 1-100 µM, mean ± SD, non-cancerous cells. The format is cell-based. The protocol: as §1, §2, §3, §4

Bounds are passed on as bounds.

A word on the IC50: it is the concentration at which inhibition is half-maximal.

With `Cc1cc(S(=O)(=O)N=c2[nH]c3ccccc3[nH]2)c(SCc2nc(N)nc(N3CCN(c4ccc(Cl)c(Cl)c4)CC3)n2)cc1Cl` [Compound 25, 2-[{4-Amino-6-[4-(3,4-dichlorophenyl)piperazin-1-yl]-1,3,5-triazin-2-yl}metylthio]-N-(1H-benzo[d]imidazol-2(3H)-ylidene)-4-chloro-5-methylbenzenesulfonamide], the IC50 in experiment [1] (Homo sapiens, HeLa) was found to be 28 ± 1 µM; in experiment [2], 16 ± 1 µM; in experiment [3] (Homo sapiens, MCF7, 72 h), 46 ± 2 µM; in experiment [4] it was 52 ± 2 µM.

On to `Cc1cc(S(=O)(=O)N=c2[nH]c3ccccc3[nH]2)c(SCc2nc(N)nc(N3CCN(c4ccc(F)c(Cl)c4)CC3)n2)cc1Cl` [Compound 26, 2-[{4-Amino-6-[4-(3-chloro-4-fluorophenyl)piperazin-1-yl]-1,3,5-triazin-2-yl}methylthio]-N-(1H-benzo[d]imidazol-2(3H)-ylidene)-4-chloro-5-methylbenzenesulfonamide], for which the IC50 turned out to be 21 ± 0.4 µM in experiment [1] (Homo sapiens, HeLa); 17 ± 0.5 µM in experiment [2]; 20 ± 1 µM in experiment [3] (Homo sapiens, MCF7, 72 h); 35 ± 1 µM in experiment [4].

For `COc1ccc(N2CCN(c3nc(N)nc(CSc4cc(Cl)c(C)cc4S(=O)(=O)N=c4[nH]c5ccccc5[nH]4)n3)CC2)cc1` [Compound 27, 2-[{4-Amino-6-[4-(4-methoxyphenyl)piperazin-1-yl]-1,3,5-triazin-2-yl}metylthio]-N-(1H-benzo[d]imidazol-2(3H)-ylidene)-4-chloro-5-methylbenzenesulfonamide], the IC50 was more than 100 µM in experiment [1] (Homo sapiens, HeLa); 74 ± 1 µM in experiment [1]; 35 ± 1 µM in experiment [2]; more than 100 µM in experiment [3] (Homo sapiens, MCF7, 72 h); 110 ± 3 µM in experiment [3]; 98 ± 2 µM in experiment [4].

For `COc1ccccc1N1CCN(c2nc(N)nc(CSc3cc(Cl)c(C)cc3S(=O)(=O)N=c3[nH]c4ccccc4[nH]3)n2)CC1` [Compound 28, 2-[{4-Amino-6-[4-(2-methoxyphenyl)piperazin-1-yl]-1,3,5-triazin-2-yl}metylthio]-N-(1H-benzo[d]imidazol-2(3H)-ylidene)-4-chloro-5-methylbenzenesulfonamide], the IC50 in experiment [1] (Homo sapiens, HeLa) was 24 ± 1 µM; in experiment [2], 16 ± 1 µM; in experiment [3] (Homo sapiens, MCF7, 72 h), 24 ± 1 µM; in experiment [4], 35 ± 1 µM.

For `Cc1cc(S(=O)(=O)N=c2[nH]c3ccccc3[nH]2)c(SCc2nc(N)nc(N3CCN(Cc4ccccc4)CC3)n2)cc1Cl` [Compound 30, 2-{[4-Amino-6-(4-benzylpiperazin-1-yl)-1,3,5-triazin-2-yl]methylthio}-N-(1H-benzo[d]imidazol-2(3H)-ylidene)-4-chloro-5-methylbenzenesulfonamide], the IC50 in experiment [1] (Homo sapiens, HeLa) was 18 ± 1 µM; in experiment [2] it was 17 ± 0.5 µM; in experiment [3] (Homo sapiens, MCF7, 72 h) it was 24 ± 1 µM; in experiment [4] it was 36 ± 2 µM.

On to `Cc1cc(S(=O)(=O)N=c2[nH]c3ccccc3[nH]2)c(SCc2nc(N)nc(N3CCN(C(c4ccccc4)c4ccccc4)CC3)n2)cc1Cl` [Compound 31], for which the IC50 in experiment [1] (Homo sapiens, HeLa) stood at 39 ± 1 µM; in experiment [2] it was 18 ± 1 µM; in experiment [3] (Homo sapiens, MCF7, 72 h), 46 ± 2 µM; in experiment [4], 54 ± 2 µM.

`CC1=NN(c2nc(N)nc(CSc3cc(Cl)c(C)cc3S(=O)(=O)N=c3[nH]c4ccc(F)cc4[nH]3)n2)C(C)(C)C1` [Compound 33, 2-{[4-Amino-6-(3,5,5-trimethyl-4,5-dihydro-1H-pyrazol-1-yl)-1,3,5-triazin-2-yl]metylthio}-4-chloro-N-(5-fluoro-1H-benzo[d]imidazol-2(3H)-ylidene)-5-methylbenzenesulfonamide]: the IC50 in experiment [1] (Homo sapiens, HeLa) was 30 ± 2 µM; in experiment [2] it was 19 ± 1 µM; in experiment [3] (Homo sapiens, MCF7, 72 h) it was 35 ± 2 µM; in experiment [4], 48 ± 2 µM.

For `Cc1cc(S(=O)(=O)N=c2[nH]c3ccc(F)cc3[nH]2)c(SCc2nc(N)nc(Nc3cccc(Cl)c3)n2)cc1Cl` [Compound 35, 2-[{4-Amino-6-[(3-chlorophenyl)amino]-1,3,5-triazin-2-yl}methylthio]-4-chloro-N-(5-fluoro-1H-benzo[d]imidazol-2(3H)-ylidene)-5-methylbenzenesulfonamide], the IC50 in experiment [1] (Homo sapiens, HeLa) is 39 ± 1 µM; in experiment [2] it was 37 ± 1 µM; in experiment [3] (Homo sapiens, MCF7, 72 h), 40 ± 1 µM; in experiment [4], 52 ± 2 µM.

`Cc1cc(S(=O)(=O)N=c2[nH]c3ccc(F)cc3[nH]2)c(SCc2nc(N)nc(N(C)c3ccc(Cl)cc3)n2)cc1Cl` [Compound 36, 2-[{4-Amino-6-[(4-chlorophenyl)(methyl)amino]-1,3,5-triazin-2-yl}metylthio]-4-chloro-N-(5-fluoro-1H-benzo[d]imidazol-2(3H)-ylidene)-5-methylbenzenesulfonamide]: the IC50 in experiment [1] (Homo sapiens, HeLa) was 29 ± 1 µM; in experiment [2], 18 ± 0.5 µM; in experiment [3] (Homo sapiens, MCF7, 72 h) it was 37 ± 2 µM; in experiment [4], 49 ± 1 µM.

On to `Cc1cc(S(=O)(=O)N=c2[nH]c3ccc(F)cc3[nH]2)c(SCc2nc(N)nc(N3CCN(c4ccccc4)CC3)n2)cc1Cl` [Compound 37, 2-[{[4-Amino-6-(4-phenylpiperazin-1-yl)-1,3,5-triazin-2-yl]methyl}thio]-4-chloro-N-(5-fluoro-1H-benzo[d]imidazol-2(3H)-ylidene)-5-methylbenzenesulfonamide], for which the IC50 is 20 ± 1 µM in experiment [1] (Homo sapiens, HeLa); 17 ± 1 µM in experiment [2]; 27 ± 2 µM in experiment [3] (Homo sapiens, MCF7, 72 h); 39 ± 1 µM in experiment [4].

As to `Cc1cc(S(=O)(=O)N=c2[nH]c3ccc(F)cc3[nH]2)c(SCc2nc(N)nc(N3CCN(c4ccc(F)cc4)CC3)n2)cc1Cl` [Compound 38, 2-[{4-Amino-6-[4-(4-fluorophenyl)piperazin-1-yl]-1,3,5-triazin-2-yl}metylthio]-4-chloro-N-(5-fluoro-1H-benzo[d]imidazol-2(3H)-ylidene)-5-methylbenzenesulfonamide], the 50% inhibitory concentration (IC50) came to 18 ± 1 µM in experiment [1] (Homo sapiens, HeLa); 14 ± 1 µM in experiment [2]; 24 ± 1 µM in experiment [3] (Homo sapiens, MCF7, 72 h); 38 ± 2 µM in experiment [4].

Take `Cc1cc(S(=O)(=O)N=c2[nH]c3ccc(F)cc3[nH]2)c(SCc2nc(N)nc(N3CCN(c4ccc(Cl)cc4)CC3)n2)cc1Cl` [Compound 39, 2-[{4-Amino-6-[4-(4-chlorophenyl)piperazin-1-yl]-1,3,5-triazin-2-yl}metylthio]-4-chloro-N-(5-fluoro-1H-benzo[d]imidazol-2(3H)-ylidene)-5-methylbenzenesulfonamide]: the IC50 in experiment [1] (Homo sapiens, HeLa) is 28 ± 2 µM; in experiment [2] it was 35 ± 2 µM; in experiment [3] (Homo sapiens, MCF7, 72 h), more than 100 µM; in experiment [3], 74 ± 2 µM; in experiment [4] it was 76 ± 2 µM.

For the molecule `Cc1cc(S(=O)(=O)N=c2[nH]c3ccc(F)cc3[nH]2)c(SCc2nc(N)nc(N3CCN(c4ccc(Cl)c(Cl)c4)CC3)n2)cc1Cl` [Compound 40, 2-[{4-Amino-6-[4-(3,4-dichlorophenyl)piperazin-1-yl]-1,3,5-triazin-2-yl}metylthio]-4-chloro-N-(5-fluoro-1H-benzo[d]imidazol-2(3H)-ylidene)-5-methylbenzenesulfonamide], the IC50 came out at 18 ± 1 µM in experiment [1] (Homo sapiens, HeLa); 16 ± 1 µM in experiment [2]; 43 ± 1 µM in experiment [3] (Homo sapiens, MCF7, 72 h); 46 ± 1 µM in experiment [4].

Take `CC1=NN(c2nc(N)nc(CSc3cc(Cl)c(C)cc3S(=O)(=O)N=c3[nH]c4ccc(Cl)cc4[nH]3)n2)C(C)(C)C1` [Compound 41, 2-{[4-Amino-6-(3,5,5-trimethyl-4,5-dihydro-1H-pyrazol-1-yl)-1,3,5-triazin-2-yl]metylthio}-4-chloro-N-(5-chloro-1H-benzo[d]imidazol-2(3H)-ylidene)-5-methylbenzenesulfonamide]: the IC50 in experiment [1] (Homo sapiens, HeLa) came to 30 ± 1 µM; in experiment [2], 25 ± 1 µM; in experiment [3] (Homo sapiens, MCF7, 72 h), 38 ± 2 µM; in experiment [4], 49 ± 1 µM.

These data come from article PMC7215599, “Synthesis, Antitumor Evaluation, Molecular Modeling and Quantitative Structure–Activity Relationship (QSAR) of Novel 2-[(4-Amino-6-N-substituted-1,3,5-triazin-2-yl)methylthio]-4-chloro-5-methyl-N-(1H-benzo[d]imidazol-2(3H)-ylidene)Benzenesulfonamides” (International Journal of Molecular Sciences, 2020).
